Assay results published in ChEMBL document CHEMBL2439949, “Synthesis and structure-activity relationships of phenyl-substituted coumarins with anti-tubercular activity that target FadD32” (Bioorg Med Chem Lett, 2013).
Calls of active or inactive are those of the source. No cut-off for these calls is given here.

Experiments:
[1] = test system: Mycobacterium tuberculosis; assay: Antimycobacterial activity against Mycobacterium tuberculosis expressing FadD32 E120G mutant at 125 uM after 7 days; assay type: functional, organism-based
[2] = test system: Mycobacterium tuberculosis; assay: Antimycobacterial activity against Mycobacterium tuberculosis expressing FadD32 E120G mutant after 7 days; assay type: functional

Row | SMILES | Activity [1] | IC90 [2] [µM]
1 | Cc1cc2oc(=O)cc(-c3ccc(N)cc3)c2c(C)c1-c1ccc(CN2CCOCC2)cc1 | inactive | –
2 | CNC(=O)c1ccc(-c2c(C)cc3oc(=O)cc(-c4ccccc4)c3c2C)cc1 | inactive | –
3 | Cc1cc2oc(=O)cc(-c3ccccc3)c2c(C)c1-c1ccc(CN2CCCCC2)cc1 | inactive | –
4 | CC(=O)Nc1cccc(-c2cc(=O)oc3cc(C)c(-c4ccc(CN5CCOCC5)cc4)c(C)c23)c1 | inactive | –
5 | Cc1cc2oc(=O)cc(-c3ccccc3)c2c(C)c1-c1ccc(CN2CCOCC2)cc1 | inactive | –
6 | Cc1cc2oc(=O)cc(-c3ccccc3)c2c(C)c1-c1ccncc1 | inactive | –
7 | Cc1cc2oc(=O)cc(-c3ccccc3)c2c(C)c1-c1ccc(C(C)O)cc1 (stereo not given) | inactive | –
8 | Cc1cc2oc(=O)cc(-c3ccccc3)c2c(C)c1-c1ccc(CNC2CCCCC2)cc1 | inactive | 32
9 | Cc1cc2oc(=O)cc(-c3ccccc3)c2c(C)c1-c1ccc(CN2CCN(C)CC2)cc1 | inactive | –
10 | Cc1cc2oc(=O)cc(-c3ccccc3)c2c(C)c1-c1ccc(CO)cc1 | inactive | –
11 | Cc1cc2oc(=O)cc(-c3cccnc3)c2c(C)c1-c1ccc(CN2CCOCC2)cc1 | inactive | –
12 | Cc1cc(CO)ccc1-c1c(C)cc2oc(=O)cc(-c3ccccc3)c2c1C | inactive | –
13 | Cc1cc2oc(=O)cc(-c3ccccc3)c2c(C)c1-c1ccccc1Cl | inactive | –
14 | Cc1cc2oc(=O)cc(-c3cccc([N+](=O)[O-])c3)c2c(C)c1-c1ccc(CN2CCOCC2)cc1 | inactive | –
